Data: patent EP0158545A1, “[Alpha-(alkylaminomethyl)-benzylthio]-acetic-acid derivatives, process for their preparation and their therapeutic use” (priority 1984, dated 1985)
“Also recorded” adds a separate entry of the source.

Key:
[1] = system: rats; test: Interaction with amphetamine (stereotypies), rat; format: in vivo; details: amphétamine 2 mg/kg I.P., doses de 4 mg/kg, 16 mg/kg et surtout 64 mg/kg
Description: L'amphétamine (2 mg/kg) est injectée par voie intrapéritonéale à des lots de 6 rats, une demi -heure après l'administration de CRL 41 190.

[2] = system: souris; test: Spontaneous motility (actimeter), mouse; format: in vivo; details: souris, I.P.; plus forte dose utilisée (128 mg/gk)
[3] = system: souris; test: Interaction with reserpine (hypothermia, ptosis), mouse; format: in vivo; details: réserpine 2,5 mg/kg I.P.
Description: Quatre heures après l'injection intrapéritonéale de 2,5 mg/kg de réserpine, des lots de 12 souris reçoivent le CRL 41 190. On étudie l'influence du produit à tester sur l'hypothermie et le ptôsis réserpiniques.

[4] = system: souris; test: Interaction with apomorphine, mouse; format: in vivo
Description: • 1°) chez la souris • Des lots de 6 souris reçoivent le produit à étudier 0,50 h avant une injection sous-cutanée de 1 mg/kg ou 16 mg/kg d'apomorphine.

[5] = system: souris mâle; details: in vivo
Description: (§1) On a résumé ci-après les résultats des essais neuropsychopharmacologiques qui ont été entrepris avec les produits préférés selon l'invention, le CRL 41 190 (Ex 1) et le CRL 41 214 (Ex 3). Dans ce résumé, les deux produits à tester mis en solution dans de l'eau distillée ont été administrés, sauf indiction contraire, par voie intrapéritonéale sous un volume de 20 ml/kg chez la souris mâle et sous un volume de 5 ml/kg chez le rat mâle. […]
La DL-0 (dose maximale non mortelle) du CRL 41 190 est supérieure à 128 mg/kg par voie I.P. chez la souris mâle, et la DL-30 est de l'ordre de 256 mg/kg.
Par voie I.P. chez la souris mâle, la DL-0 est supérieure à 256 mg/kg.

[6] = system: l'homme; test: Clinical treatment of depression, oral administration; format: in vivo
[7] = system: souris; test: Global behaviour and reactivities, mouse; format: in vivo; details: I.P.
Description: as §1
(§2) Des lots de trois animaux sont observés avant puis 0,25 h, 0,5, h, 1 h, 2 h, 3 h et 24 h après administration de CRL 41 190.

[8] = system: souris; test: Motility reduced by habituation to the enclosure, mouse; format: in vivo; details: I.P., plus forte dose utilisée (128 mg/kg)
[9] = system: souris; test: Behavioural despair (forced immersion), mouse; format: in vivo; details: I.P., doses de 32 et 128 mg/kg
Source text: On note la durée totale d'immobilité entre la 2ème et la 6ème minutes suivant l'immersion.

[10] = system: souris; details: I.P., plus forte dose utilisée (128 mg/kg)
[11] = system: souris; test: Intergroup aggressiveness, mouse; format: in vivo; details: I.P., aux doses utilisées
Description: Après avoir séjourné pendant 3 semaines dans chacune des moitiés d'une cage séparées par une cloison opaque, des groupes de 3 souris reçoivent le CRL 41 190. Une demi-heure plus tard, les deux groupes d'une même cage sont réunis par retrait de la cloison et on note le nombre de combats qui surviennent en 10 minutes.

[12] = system: rat; test: Global behaviour and reactivities, rat; format: in vivo; details: I.P.
Description: as §1, §2

[13] = system: souris; test: Interaction with oxotremorine, mouse; format: in vivo; details: oxotrémorine 0,5 mg/kg I.P.
[14] = system: souris; test: Four-plate test, traction and electroshock, mouse; format: in vivo
Description: Le test est pratiqué sur des lots de 10 souris 0,50 h après l'administration du produit à étudier.

[15] = system: souris; test: Interaction with barbital (sleep duration), mouse; format: in vivo; details: barbital 220 mg/kg I.P., plus forte dose utilisée (128 mg/kg)
[16] = system: rat; test: Interaction with apomorphine, rat; format: in vivo; details: product I.P. 0,50 h before s.c. 0,5 mg/kg apomorphine
[17] = system: souris; test: Asphyxic anoxia (gallamine triethiodide), mouse; format: in vivo; details: product I.P. half an hour before triiodoéthylate de gallamine 32 mg/kg I.P.
[18] = system: chiens; test: Cardiovascular tests in dogs, intraduodenal successive doses; format: in vivo, chien
Description: a) Quatre chiens (poids moyen : 13,8 kg) anesthésiés au nembutal reçoivent le CRL 41 250 par voie intraduodénale, aux doses successives de 0,1 mg/kg, 0,5 mg/kg, 1 mg/kg, 2,5 mg/kg, 5 mg/kg puis 10 mg/kg. On mesure la pression artérielle, la fréquence cardiaque, le débit artériel fémoral, le débit artériel vertébral, la température rectale et on observe la coloration de la peau.
a) Deux chiens (poids moyen : 14,5 kg) reçoivent le CRL 41 252 par voie intraduodénale, aux doses successives de 0,1 mg/kg, 0,5 mg/kg, 1 mg/kg, 2,5 mg/kg, 5 mg/kg, 10 mg/kg et 20 mg/kg. On mesure la pression artérielle, la fréquence cardiaque, le débit artériel fémoral, le débit artériel vertébral, les températures rectale et cutanée et on observe la coloration de la peau.

[19] = system: chiens; test: Influence on isoprenaline effects, dog; format: in vivo; details: chien, isoprénaline 10 µg/kg I.V., dose cumulée de 19,1 mg/kg I.D.
[20] = system: système nerveux central (SNC); test: General statement of CNS (antidepressant, sedative) properties; format: in vivo
[21] = system: chiens; test: Influence on isoprenaline effects, dog; format: in vivo; details: chien, after dose cumulée 19,1 mg/kg I.D.
Source text: (§3) b) Sur les mêmes chiens on a étudié l'influence du produit vis à vis de l'isoprénaline et de la noradrénaline.
Avec 10,pg/kg I.V. d'isoprénaline la pression artérielle diastolique du CRL 41 252 passe de 128 à […] ([…] à 6,4 x 10^3 Pa), […]

[22] = system: chiens; test: Influence on noradrenaline hypertension, dog; format: in vivo; details: chien
Description: as §3
L'hyptertension à la noradrénaline (2 µg/kg I.V.) est augmentée par le CRL 41 252 ([…]), la pression artérielle systolique passe de 208 à 352 mmHg (soit environ de 2,77 x 10^4 à 4,7 x 10^4Pa) au lieu de 204 à 328 mmHg (soit environ de 2,71 à 4,3 x 10 Pa).

[23] = dès la dose de 8 mg/kg, mais surtout aux doses de 32 mg/kg et 128 mg/kg
[24] = souris, 0,50 h after I.P. administration

CC(C)(C)NCC(SCC(=O)NO)c1ccccc1 (racemic) [CRL 41 214, chlorhydratede l'acide [α-(tertiobutyl-aminométhyl)-benzyl]-thioacétohydroxamique]
stéréotypies amphétaminiques [1]: potentialise nettement les stéréotypies amphétaminiques | activité motrice spontanée [2]: augmente nettement l'activité motrice spontanée de la souris | ptôsis réserpinique ([3]; doses 8 to 128 mg/kg): sans modifier le ptôsis | hypothermie réserpinique [3, 23]: antagonise l'hypothermie réserpinique | hypothermie induite par l'apomorphine ([4]; I.P., dès la dose de 2 mg/kg, mais surtout aux doses de 32 mg/kg à 128 mg/kg): antagonise l'hypothermie induite par l'apomorphine | comportements de verticalisation et stéréotypies (apomorphine) ([4]; product I.P. 0,50 h before s.c. apomorphine): ne sont pratiquement pas modifiés | signs observed at high doses [5]: une sédation et une dyspnée | DL-0 (dose maximale non mortelle) ([5]; mouse, ip): > 256 mg/kg | traitement des dépressions chez l'homme ([6]; administration orale, gélules ou comprimés 25 mg ou 50 mg, 1 à 2 prises par jour, deux à trois semaines): bons résultats | propriétés antidépressives chez les personnes agées ([6]; clinical, oral): se manifestaient de façon très bénéfique chez les personnes agées | comportement global et réactivités ([7]; dose de 128 mg/kg): une mydriase modérée | comportement global et réactivités ([7]; doses de 2 à 32 mg/kg): aucune modification nette du comportement et des réactivités | reprise d'activité motrice chez la souris habituée à son enceinte [8]: entraîne une reprise nette d'activité motrice chez la souris habituée à son enceinte | durée de l'immobilité de la souris placée en immersion forcée [9]: diminue très modérément la durée de l'immobilité de la souris placée en immersion forcée | récupération motrice après anoxie hypobare aigue [10]: semble entraîner une amélioration très modérée de la récupération motrice | nombre de combats [11]: ne modifie pratiquement pas le nombre de combats | comportement global et réactivités ([12]; dose de 16 mg/kg): une mydriase d'une durée de 2 h qui est maximale 0,5 h après administration | comportement global et réactivités ([12]; dose de 64 mg/kg): une diminution de la fréquence respiratoire pendant 0,5 h et une mydriase d'une durée de 3 h qui est maximale 1 h après administration | comportement global et réactivités ([12]; doses de 1 et 4 mg/kg): aucune modification nette du comportement, des réactivités, de la température rectale et du diamètre pupillaire par rapport au lot témoin | signes de stimulation cholinergique périphérique dûs à l'oxotrémorine ([13]; all doses used): ne modifie pratiquement pas les signes de stimulation cholinergique périphérique dûs à l'oxotrémorine | intensité des tremblements dus à l'oxotrémorine ([13]; doses de 32 mg/kg et 128 mg/kg): diminue faiblement l'intensité des tremblements dus à l'oxotrémorine | hypothermie induite par l'oxotrémorine [13, 23]: s'oppose à l'hypothermie induite par l'oxotrémorine | effets convulsivants de l'électrochoc [14, 24]: ne modifie pratiquement pas les effets convulsivants | incapacité motrice (traction) [14, 24]: ne provoque pas d'incapacité motrice majeure | nombre de passages punis (test des quatre plaques) [14, 24]: n'entraîne pas d'augmentation nette du nombre de passages punis | effets létaux de l'électrochoc ([14]; souris, I.P., dose de 128 mg/kg): aggrave, à la dose de 128 mg/kg, les effets létaux de l'électrochoc | durée du sommeil barbiturique [15]: diminue nettement la durée du sommeil barbiturique | stéréotypies induites par l'apomorphine [16]: laisse inchangées les stéréotypies induites par l'apomorphine | délai d'apparition des convulsions et de la mort consécutives à une anoxie asphyxique [17]: diminue très modérément le délai d'apparition des convulsions et de la mort

CC(SC(CNC(C)(C)C)c1ccccc1)C(N)=O (stereo not drawn) [CRL 41 250, fumaratede 2-{[α-(tertiobutylaminomethyl)-benzyl]-thio}-propionamide]
débit fémoral ([18]; chien anesthésié (nembutal), dose de 19,1 mg/kg I.D.): augmente le débit fémoral | fréquence cardiaque ([18]; chien anesthésié, dose de 1 mg/kg I.D.): provoque une légère bradycardie | pression artérielle ([18]; chien anesthésié, successive I.D. doses 0,1 to 10 mg/kg): aucun effet sur la pression artérielle | effets vasodilatateurs (propriétés cardiovasculaires) ([18]; general statement): effets vasodilatateurs intéressants; also recorded: effets vasodilatateurs bénéfiques | effect on isoprénaline response (pression artérielle diastolique, fréquence cardiaque) [19]: ne modifie pas la pression artérielle diastolique ni la fréquence cardiaque | propriétés antidépressives et sédatives [20]: propriétés antidépressives et sédatives | pression artérielle diastolique, before isoprénaline ([21]; control 151): 148 mmHg | fréquence cardiaque, before isoprénaline ([21]; control 180): 175 battements/minute | pression artérielle diastolique, after isoprénaline ([21]; isoprénaline 10 µg/kg I.V., control 43): 47 mmHg | fréquence cardiaque, after isoprénaline ([21]; isoprénaline 10 µg/kg I.V., control 271): 265 battements/minute | pression artérielle systolique, before noradrénaline ([22]; after dose cumulée 19,1 mg/kg I.D., control 204): 191 mmHg | pression artérielle systolique, after noradrénaline ([22]; noradrénaline 2 µg/kg I.V., after dose cumulée 19,1 mg/kg I.D., control 304): 330 mmHg | hypertension à la noradrénaline ([22]; noradrénaline 2 µg/kg I.V., dose cumulée de 19,1 mg/kg I.D.): légèrement augmentée
